Consider two compounds from US7341836B2, “Modified cyclic nucleotide gated ion channels” (The Regents of the University of Colorado, priority 2001, dated 2008).

For one test, the system named is PDE IV. To be noted: cited from earlier work.
Another test deals with PDE I. To be noted: cited from earlier work.
The next test deals with PDE III. To be noted: cited from earlier work.
Test [1] concerns PDE activity in GH4C1 cells. The test can be described thus: Effect of PDE inhibitors, forskolin and VIP on cAMP levels (Ca2+ influx through CNG channels). To be noted: for d(ΔF/F0)/dt: basal cAMP, inhibitor concentration (μM). In kind it is cell-based, rat. The protocol: To further test the utility of this approach, PDE activity in excitable GH4C1 pituitary cells was examined. In all of the experiments shown (See, FIGS. 13-14, and Table 2), 1 μM nimodipine was added at time zero to block Ca^2+ influx though voltage-gated Ca^2+ channels (triggered by membrane depolarization due to Ca^2+ and Na^+ influx through CNG channels). […] FIGS. 13 and 14 each depict experiments done on a single batch of cells. As before, similar results were obtained on three other batches. In the experiments that produced the data shown in Table 2, cAMP concentrations were monitored using Ca^2+ influx through C460W/E583M channels. […] Either 100 μM IBMX or vehicle (-IBMX; control) were added at time zero. Then, 50 μM forskolin were added at 180 seconds d(ΔF/F0)/dt, which is proportional to the Ca^2+ influx rate, was estimated as described in the Examples. Data are provided as mean±standard error. IBMX or vehicle was added at 60 seconds (first arrow in FIG. 13). Either 10 μM forskolin or 100 nM VIP were added at 240 seconds (second arrow in FIG. 13). In the absence of IBMX, large forskolin or VIP-induced increases in Ca^2+ influx were observed. […] This level of basal AC activity was quite different from that observed in HEK-293 cells (See, FIGS. 9 and 10). 1 μM nimodipine was added at time 0 to block endogenous voltage-gated Ca^2+ channels.
To identify the PDE family or families that regulate the local cAMP concentration in GH4C1 cells, cAMP accumulation was monitored in the presence and absence of PDE inhibitors (See, Table 2). Again, the high cAMP affinity C460W/E583M channels were used. PDE inhibitors were added at 60 s. Although the addition of IBMX alone triggered Ca^2+ influx, 10 μM forskolin were added at 240 s as a positive control for CNG channel activity. […] This PDE is likely to have a low Km for cAMP because it is capable of regulating cAMP at concentrations too low for the WT or Δ61-90/C460W/E583M channels to detect. Thus, it is contemplated that a Ca^2+-CaM stimulated PDE (type I) is primarily responsible for controlling basal cAMP signals in GH4C1 cells.
In addition, PDE activity was monitored using Δ61-90/C460W/E583M channels to detect changes in cAMP concentration (See, FIG. 14). PDE inhibitors and forskolin were added as described above. With this construct, it was not possible to observe changes in cAMP concentration due to inhibition of PDE activity alone. […] Inhibitors specific to other PDE types had no effect on the forskolin-induced Ca^2+ influx (data not shown). […] It is contemplated that Ca^2+ influx through the C460W/E583M channels was saturated at cAMP concentrations below the Km for this PDE. Thus, it is contemplated that there are two different PDE types that regulate local cAMP signals in GH4C1 cells: a low Km, 8-methoxymethyl-IBMX sensitive PDE (type I); and a high Km, RO-20-1724-, rolipram-sensitive PDE (type IV).
GH4C1 rat pituitary cells (ATCC) were maintained in 13 mL Ham's F-10 medium (Life Technologies) supplemented with 14.3 mM NaHCO3, 15% donor horse serum (Gemini), and 2.5% fetal bovine serum, pH 6.8, in 75 cm^2 flasks at 37° C. in a humidified atmosphere of 95% air and 5% CO2. Cells were split weekly (1:4) and washed with fresh medium twice weekly. Cells were plated at ˜60% confluence in 100 mm culture dishes twenty-four hours prior to infection with the CNG-channel-encoding adenovirus constructs (multiplicity of infection=50 plaque forming units per cell). Forty-eight hours post-infection cells were detached, resuspended in serum-containing medium, and assayed within 12 hours.
In this Example, experiments conducted to examine the response of excitable GH4C1 pituitary cells to stimulation by either forskolin or the hormone vasoactive intestinal peptide (VIP), in the presence of absence of PDE inhibitors are described. […]
On the technique in general: cAMP levels reflect the balance of adenylyl cyclase and phosphodiesterase activity.

The test system of another test is PDE VI. To be noted: cited from earlier work.
In the next test the target is T1, PDE VII (UniProt Q9QXQ1).
T1 sequence (Q9QXQ1 1-446): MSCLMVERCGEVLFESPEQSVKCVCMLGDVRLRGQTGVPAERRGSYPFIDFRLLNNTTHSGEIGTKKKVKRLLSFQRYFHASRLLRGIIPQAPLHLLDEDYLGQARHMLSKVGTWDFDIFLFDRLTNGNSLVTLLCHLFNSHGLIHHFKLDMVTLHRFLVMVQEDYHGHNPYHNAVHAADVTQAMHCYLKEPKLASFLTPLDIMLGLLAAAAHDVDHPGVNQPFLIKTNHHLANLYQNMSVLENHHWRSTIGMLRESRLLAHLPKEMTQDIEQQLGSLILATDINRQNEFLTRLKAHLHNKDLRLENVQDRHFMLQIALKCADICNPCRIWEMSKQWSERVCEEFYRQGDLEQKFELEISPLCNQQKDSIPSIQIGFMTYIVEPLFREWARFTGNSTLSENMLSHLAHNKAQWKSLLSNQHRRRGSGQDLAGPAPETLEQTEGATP
To be noted: cited from earlier work.

The target of a further test is T2, PDE IX (UniProt O70628).
T2 sequence (O70628 1-534): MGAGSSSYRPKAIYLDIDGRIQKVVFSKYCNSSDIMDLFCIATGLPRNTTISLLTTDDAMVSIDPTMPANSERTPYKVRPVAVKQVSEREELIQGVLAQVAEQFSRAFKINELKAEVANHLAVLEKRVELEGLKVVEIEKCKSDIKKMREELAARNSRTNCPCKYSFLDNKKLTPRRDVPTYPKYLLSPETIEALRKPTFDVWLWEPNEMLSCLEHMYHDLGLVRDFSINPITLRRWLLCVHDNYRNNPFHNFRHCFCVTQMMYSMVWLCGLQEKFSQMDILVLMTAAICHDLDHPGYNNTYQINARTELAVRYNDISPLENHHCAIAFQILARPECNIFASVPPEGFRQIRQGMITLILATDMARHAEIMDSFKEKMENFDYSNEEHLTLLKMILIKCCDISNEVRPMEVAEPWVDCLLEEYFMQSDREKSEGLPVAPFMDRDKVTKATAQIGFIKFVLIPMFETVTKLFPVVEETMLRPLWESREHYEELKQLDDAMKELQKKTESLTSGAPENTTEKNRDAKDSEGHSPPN
To be noted: read-out: IC50, PDE IX; cited from earlier work.

The next test concerns the target T3, PDE VIII (Mus musculus, UniProt O88502).
T3 construct: host or cells: heterologously expressed
T3 sequence (O88502 1-823): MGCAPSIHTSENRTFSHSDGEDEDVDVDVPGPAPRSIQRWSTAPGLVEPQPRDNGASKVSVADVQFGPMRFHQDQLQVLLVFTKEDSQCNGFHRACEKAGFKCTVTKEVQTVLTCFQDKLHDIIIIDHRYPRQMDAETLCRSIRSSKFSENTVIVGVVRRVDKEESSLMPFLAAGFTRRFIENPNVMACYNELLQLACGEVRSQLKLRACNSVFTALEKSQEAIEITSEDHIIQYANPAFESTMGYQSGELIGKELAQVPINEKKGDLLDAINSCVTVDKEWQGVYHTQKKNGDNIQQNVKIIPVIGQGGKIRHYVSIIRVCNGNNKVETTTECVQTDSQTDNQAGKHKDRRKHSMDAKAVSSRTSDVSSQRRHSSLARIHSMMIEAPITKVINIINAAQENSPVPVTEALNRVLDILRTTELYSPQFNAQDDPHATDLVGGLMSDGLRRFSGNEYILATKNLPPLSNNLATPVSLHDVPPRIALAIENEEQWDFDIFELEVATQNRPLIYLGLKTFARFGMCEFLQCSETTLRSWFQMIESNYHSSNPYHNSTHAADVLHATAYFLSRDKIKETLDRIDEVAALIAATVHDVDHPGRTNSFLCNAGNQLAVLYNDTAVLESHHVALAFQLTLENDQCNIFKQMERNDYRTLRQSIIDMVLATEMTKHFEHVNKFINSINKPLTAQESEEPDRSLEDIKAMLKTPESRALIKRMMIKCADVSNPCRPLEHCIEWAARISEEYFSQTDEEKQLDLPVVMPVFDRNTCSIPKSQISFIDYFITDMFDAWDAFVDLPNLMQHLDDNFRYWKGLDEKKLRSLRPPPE
To be noted: cited from earlier work.

pIC50: −log10 of the molar value. “Also recorded” adds a separate entry of the source.

For the compound `COCc1nc2c([nH]1)c(=O)n(C)c(=O)n2CC(C)C` [8-methoxymethyl-IBMX], the values for the pIC50 in the test with PDE IV, with PDE I and with PDE III were less than 4.00, 5.10 to 5.70 and 4.16, respectively. For the same compound, in test [1] (C460W/E583M channels, no AC stimulation), the “Ca2+ influx induced by the PDE inhibitor alone (basal cAMP)” value was “induced Ca^2+ influx through CNG channels”. For the same compound, the “d(ΔF/F0)/dt” value in test [1] (C460W/E583M channels) stood at 0.0025 ± 0.0009 s⁻¹. In test [1] (Δ61-90/C460W/E583M channels, 10 μM forskolin), the “effect on forskolin-induced Ca2+ influx / PDE activity” value was “significantly inhibited PDE activity; also recorded: increase forskolin-induced Ca^2+ influx through CNG channels”.
`CCCOc1ccccc1-c1nc2nn[nH]c2c(=O)[nH]1` [Zaprinast]: the pIC50 was 6.82 in the test on PDE VI; 5.00 to 5.52 with PDE I; 5.00 in the test with PDE III; less than 4.30 at PDE VII; 4.46 to 4.54 on PDE IX; less than 4.00 on PDE VIII. In test [1] (C460W/E583M channels), the “d(ΔF/F0)/dt” value came out at 0 s⁻¹.

A word on the pIC50: it is −log10 of the IC50, conventionally taken in molar units.
